# Assay results published in US20130123481A1, “MODIFIED NUCLEOSIDES, NUCLEOTIDES, AND NUCLEIC ACIDS, AND USES THEREOF” (MODERNA THERAPEUTICS, priority 2011, published 2013).
# What was measured:
# [1] = system: peripheral blood mononuclear cells (PBMC); assay: In Vitro Screening in PBMC - G-CSF protein expression; type: cell-based, human; conditions: 500 ng mRNA
# From the text: The supernatant was harvested and stored frozen until analyzed by ELISA to determine the G-CSF protein expression, and the induction of the cytokines interferon-alpha (IFN-α) and tumor necrosis factor alpha (TNF-α).
# [2] = system: human embryonic kidney 293 (HEK293) cells; assay: Toxicity of Nucleoside Triphosphates (NTPs), CYTO TOX-GLO assay; type: cell-based
# Protocol: The cytotoxicity of natural and modified nucleoside triphosphates (NTPs) alone or in combination with other bases, was analyzed in human embryonic kidney 293 (HEK293) cells in the absence of transfection reagent. […] 10 ul of the NTPs outlined in Table 12 were combined with 10 ul of lipid dilution and incubated for 30 minutes to form a complex before 80 ul of the HEK293 cell suspension was added to the NTP complex. Natural and modified NTPs were transfected at a concentration of 2.1 nM, 21 nM, 210 nM, 2.1 um, 21 uM, 210 um or 2.1 mM. NTPs in combination were transfected at a total concentration of NTPs of 8.4 nM, 84 nM, 840 nM, 8.4 uM, 84 uM, 840 uM and 8.4 mM.
# [3] = PBMC Donor 1, 0.4 uL Lipofectamine 2000
smiles,measurement,setting,value
Cn1cnc2c(ncn2[C@@H]2O[C@H](CO)[C@@H](O)[C@H]2O)c1=N [N1-methyladenosine],G-CSF Protein Expression,[1]; [3],182 pg/mL
same,G-CSF Protein Expression,[1]; PBMC Donor 2,177 pg/mL
same,G-CSF Protein Expression,[1]; PBMC Donor 3,191 pg/mL
Cn1cc([C@@H]2O[C@H](CO)[C@@H](O)[C@H]2O)c(=O)[nH]c1=O [N1-methyl pseudouridine],percent of viable cells,"[2]; HEK293, individual NTP 2.1 nM, 4 hr",91.89%
same,percent of viable cells,"[2]; HEK293, individual NTP 2.1 nM, 24 hr",87.79%
same,percent of viable cells,"[2]; HEK293, individual NTP 2.1 nM, 48 hr",87.81%
same,percent of viable cells,"[2]; HEK293, individual NTP 2.1 nM, 72 hr",92.98%
same,percent of viable cells,"[2]; HEK293, individual NTP 21 nM, 4 hr",91.44%
same,percent of viable cells,"[2]; HEK293, individual NTP 21 nM, 24 hr",86.85%
same,percent of viable cells,"[2]; HEK293, individual NTP 21 nM, 48 hr",86.72%
same,percent of viable cells,"[2]; HEK293, individual NTP 21 nM, 72 hr",92.84%
same,percent of viable cells,"[2]; HEK293, individual NTP 210 nM, 4 hr",92.15%
same,percent of viable cells,"[2]; HEK293, individual NTP 210 nM, 24 hr",85.89%
same,percent of viable cells,"[2]; HEK293, individual NTP 210 nM, 48 hr",87.38%
same,percent of viable cells,"[2]; HEK293, individual NTP 210 nM, 72 hr",92.40%
same,percent of viable cells,"[2]; HEK293, individual NTP 2.1 uM, 4 hr",90.41%
same,percent of viable cells,"[2]; HEK293, individual NTP 2.1 uM, 24 hr",85.72%
same,percent of viable cells,"[2]; HEK293, individual NTP 2.1 uM, 48 hr",85.85%
same,percent of viable cells,"[2]; HEK293, individual NTP 2.1 uM, 72 hr",92.25%
same,percent of viable cells,"[2]; HEK293, individual NTP 21 uM, 4 hr",91.48%
same,percent of viable cells,"[2]; HEK293, individual NTP 21 uM, 24 hr",85.17%
same,percent of viable cells,"[2]; HEK293, individual NTP 21 uM, 48 hr",87.52%
same,percent of viable cells,"[2]; HEK293, individual NTP 21 uM, 72 hr",93.83%
same,percent of viable cells,"[2]; HEK293, individual NTP 210 uM, 4 hr",91.43%
same,percent of viable cells,"[2]; HEK293, individual NTP 210 uM, 24 hr",86.48%
same,percent of viable cells,"[2]; HEK293, individual NTP 210 uM, 48 hr",86.02%
same,percent of viable cells,"[2]; HEK293, individual NTP 210 uM, 72 hr",93.03%
same,percent of viable cells,"[2]; HEK293, individual NTP 2.1 mM, 4 hr",92.45%
same,percent of viable cells,"[2]; HEK293, individual NTP 2.1 mM, 24 hr",88.92%
same,percent of viable cells,"[2]; HEK293, individual NTP 2.1 mM, 48 hr",89.84%
same,percent of viable cells,"[2]; HEK293, individual NTP 2.1 mM, 72 hr",96.80%
Nc1nc(=O)n([C@@H]2O[C@H](CO)[C@@H](O)[C@H]2O)cc1C=O [5-formylcytidine],G-CSF Protein Expression,[1]; [3],18 pg/mL
same,G-CSF Protein Expression,[1]; PBMC Donor 2,205 pg/mL
same,G-CSF Protein Expression,[1]; PBMC Donor 3,23 pg/mL
Nc1cc[nH]c(=O)n1 [Cytosine],percent of viable cells,"[2]; human, 4 h, 2.1 nM",93.34%
same,percent of viable cells,"[2]; human, 4 h, 21 nM",93.11%
same,percent of viable cells,"[2]; human, 4 h, 210 nM",88.95%
same,percent of viable cells,"[2]; human, 4 h, 2.1 uM",90.49%
same,percent of viable cells,"[2]; human, 4 h, 21 uM",91.41%
same,percent of viable cells,"[2]; human, 4 h, 210 uM",89.88%
same,percent of viable cells,"[2]; human, 4 h, 2.1 mM",90.51%
same,percent of viable cells,"[2]; human, 24 h, 2.1 nM",85.78%
same,percent of viable cells,"[2]; human, 24 h, 21 nM",86.16%
same,percent of viable cells,"[2]; human, 24 h, 210 nM",86.12%
same,percent of viable cells,"[2]; human, 24 h, 2.1 uM",86.70%
same,percent of viable cells,"[2]; human, 24 h, 21 uM",85.72%
same,percent of viable cells,"[2]; human, 24 h, 210 uM",86.33%
same,percent of viable cells,"[2]; human, 24 h, 2.1 mM",86.92%
same,percent of viable cells,"[2]; human, 48 h, 2.1 nM",88.99%
same,percent of viable cells,"[2]; human, 48 h, 21 nM",88.95%
same,percent of viable cells,"[2]; human, 48 h, 210 nM",85.36%
same,percent of viable cells,"[2]; human, 48 h, 2.1 uM",87.73%
same,percent of viable cells,"[2]; human, 48 h, 21 uM",87.28%
same,percent of viable cells,"[2]; human, 48 h, 210 uM",87.81%
same,percent of viable cells,"[2]; human, 48 h, 2.1 mM",94.23%
same,percent of viable cells,"[2]; human, 72 h, 2.1 nM",94.22%
same,percent of viable cells,"[2]; human, 72 h, 21 nM",91.80%
same,percent of viable cells,"[2]; human, 72 h, 210 nM",88.22%
same,percent of viable cells,"[2]; human, 72 h, 2.1 uM",88.93%
same,percent of viable cells,"[2]; human, 72 h, 21 uM",92.22%
same,percent of viable cells,"[2]; human, 72 h, 210 uM",92.34%
same,percent of viable cells,"[2]; human, 72 h, 2.1 mM",97.15%
CNc1ncnc2c1ncn2[C@@H]1O[C@H](CO)[C@@H](O)[C@H]1O [N6-methyladenosine],G-CSF Protein Expression,[1]; [3],100 pg/mL
same,G-CSF Protein Expression,[1]; PBMC Donor 2,168 pg/mL
same,G-CSF Protein Expression,[1]; PBMC Donor 3,200 pg/mL
